Our source for the IC50 values is patent US6451796B1, “Fused pyrazine compounds” (Ono Pharmaceutical Co., Ltd., priority 1997, dated 2002).

What all share (type): cell-based
One series deals with VCAM-1 expression. In words: Inhibition of VCAM-1 expression in HUVEC (cell ELISA). As to conditions: Homo sapiens; HUVEC stimulated with TNFα plus IL-4 for 6 hours, ELISA of surface expression. As to the method:
(§1) (1) Inhibition of Adhesion Molecules Expression in HUVEC
(§2) Human umbilical vein endothelial cells were cultured using MCDB104 medium (Nissui) containing 5% Fetal bovine serum supplemented antibiotics (100 U/ml penicillin, 100 μg/ml streptomycin (Gibco)), 0.01 mg/ml heparin (Nissui) and 0.005 mg/ml endothelial cells (EC) growth factor (Nissui) in gelatin coated 96-well microtiter plates by resulting in confluent monolayers.
(§3) The compounds were dissolved in dimethyl sulfoxide and prepared final 0.2% concentration in the medium and then added 50 μl into the well. Cytokine stimulation of EC was performed by adding 50 μl of 10 ng/ml TNFα (Genzyme) (for E-selectin. and ICAM-1 expression) or 50 μl of 10 ng/ml TNFα plus 1 ng/ml IL-4 (Genzyme)(for VCAM- expression).
(§4) After stimulation for 6 hours, the wells were washed with PBS(−) once and EC monolayers were fixed by incubating with methanol containing 0.3% hydrogen peroxide for 10 minutes at room temperature. After washing with PBS(−) three times, an ELISA was used to measure the expression of adhesion molecules on EC surface. The ELISA was performed at room temperature with three times washes with PBS(−) between each step. EC were incubated for 30 minutes in turn with 100 μl primary antibody which were anti-ICAM-1 antibody (BBA4), anti-E-selectin antibody (BBA2) or anti-VCAM-1 antibody (BBA6) (mouse IgG1, 1.25 μl/ml; R&D), with 100 μl of secondary antibody which was goat anti-mouse IgG conjugated peroxidase (dilution (1/400); Nordic Immunological laboratories). The enzyme substrate 1 mg/ml o-phenylenediamine/2HCl and 0.1% hydrogen peroxide of 100 μl was added and incubated for 4 minutes at room temperature.
(§5) Reaction was stopped with 50 μl of 8N sulfuric acid and optical density (OD) of each well read at 490 nm in immunoreder. Inhibitory percentage was calculated as follows and IC50 value was estimated by percentage for control.
(§6) Inhibitory percentage (%)=[(C−S)/(C−B)]×100
(§7) C: OD of the sample stimulated by cytokines
(§8) S: OD of the sample stimulated by cytokines in the presence of test compound
(§9) B: OD of the nonstimulated sample
On the technique in general: An ELISA detects its analyte on a solid surface through an enzyme-linked reagent.

A further series has as its system E-selectin expression. As to the kind of experiment: Inhibition of E-selectin expression in HUVEC (cell ELISA). Conditions: Homo sapiens; HUVEC stimulated with TNFα for 6 hours, ELISA of surface expression. As to the method: as §1, §2, §3, §4, §5, §6, §7, §8, §9
Series [1] in a line: Cytotoxicity test by MTT assay. As to conditions: human; EC treated under conditions identical to adhesion molecule expression measurement; MTT 3 hours. As to the method: Furthermore, MTT [3-(4,5-dimethyl-2-thiazolyl)-2,5-diphenyl-2H-tetrazolium bromide] assay was enforced and the number of living cells was counted in order to estimate the effect of compound not to depend cytotoxicity on the above evaluation system.
(2) Cytotoxicity Test by MTT Assay
EC Were treated under conditions identical to those employed for measurement of adhesion molecules expression. After incubation, the wells were washed with PBS(−) once, added 100 μl of MTT solution (1 mg/ml) and incubated for 3 hours. After incubation supernatants were discarded and 100 μl of methanol added. After stirring, OD of each well read at 570 nm/690 nm in immunoreader. Inhibitory percentage was calculated as follows and IC50 value was estimated by percentage for control.
Inhibitory percentage (%)=[(C−S)/C)]×100
as §7, §8
Background: Tetrazolium dyes change colour on reduction, which living cells bring about.

The test system of the next series is ICAM-1 expression. As to the kind of experiment: Inhibition of ICAM-1 expression in HUVEC (cell ELISA). Conditions: Homo sapiens; HUVEC stimulated with TNFα for 6 hours, ELISA of surface expression. As to the method: as §1, §2, §3, §4, §5, §6, §7, §8, §9

As usually defined, the IC50 is the concentration at which inhibition is half-maximal.

Regarding `OCCCCCSc1nc2ccc(Cl)cc2n2c(C(F)(F)F)nnc12` [Example 3(73), 8-Chloro-4-(5-hydroxypentyl)thio-(5-trifluoromethyl-1,2,4-triazolo)[4,3-a]quinoxaline], the IC50 is 0.2 µM in the series on VCAM-1 expression, 0.6 µM in the series with E-selectin expression, above 25000 nM in series [1] and 0.4 µM in the series on ICAM-1 expression.

Turning to `FC(F)(F)c1nnc2c(Sc3ccccc3)nc3ccccc3n12` [Compound (12), 4-Phenylthio(5-trifluoromethyl-1,2,4-triazolo)-[4,3-a]quinoxaline], the IC50 in the series on VCAM-1 expression is 0.95 µM; in the series on E-selectin expression, 1.04 µM; in series [1], above 50000 nM; with ICAM-1 expression, 0.95 µM.

For the compound `CC(C)Sc1nc2cccnc2n2c(C(F)(F)F)nnc12` [Example 3(16), 4-Isopropylthio-(5-trifluoromethyl-1,2,4-triazolo)[3,4-c]1,4,5-triazanaphthalene], the IC50 in the series with VCAM-1 expression is 0.032 µM; in the series on E-selectin expression, 0.103 µM; in series [1], above 100000 nM; in the series on ICAM-1 expression, 0.073 µM.
